In US3960877A, “N-monosubstituted-2,3-pyridinedicarboxamides, and related compounds” (priority 1974, dated 1976):

What was measured:
Assay type in all cases: in vivo
[1] = tested on: Curled Dock; test: Preemergence herbicidal activity, % control of plant growth; details: pre-emergence, 504 h, 16 lb/acre, about 3 weeks
Text: (§1) By "preemergence" is meant that the compound is applied to the soil prior to emergence of the weed species sought to be controlled. This term, as used herein, also means the application of the herbicidal compounds falling within the scope of this disclosure to areas wherein useful or desirable plants are either growing or have been sown, but where the undesirable plants sought to be controlled have not as yet emerged.
(§2) In using the compound, seeds of the types of plants set forth in Table II were sown in fresh soil. In the preemergence test the soil was sprayed with a solution of the test compound immediately after the seeds were planted, and before any noticeable growth developed. The solution was about a 2 percent by weight solution of the compound in acetone and/or alcohol. The compound was applied at the rate of 16 pounds per acre of soil surface.
(§3) Approximately 3 weeks after spray application, the herbicidal activity of the compound was determined by visual observation of the treated area in comparison with untreated control areas. These observations are reported below in Table II wherein the average activity rating is reported as the percent control of plant growth.
(§4) *Preemergence test: compound applied at rate of 16 lb/acre

[2] = tested on: Cheatgrass; test: as above; details: Bromus tectorum, pre-emergence, 504 h, 16 lb/acre, about 3 weeks
Text: as §1, §2, §3, §4

[3] = tested on: Lambsquarters; test: as above; details: Chenopodium album, pre-emergence, 504 h, 16 lb/acre, about 3 weeks
Text: as §1, §2, §3, §4

[4] = tested on: Crabgrass; test: as above; details: Digitaria sanguinalis, pre-emergence, 504 h, 16 lb/acre, about 3 weeks
Text: as §1, §2, §3, §4

[5] = tested on: Barnyard Grass; test: as above; details: Echinochloa crus-galli, pre-emergence, 504 h; barnyard grass; 16 lb/acre; about 3 weeks
Text: as §1, §2, §3, §4

[6] = tested on: Chickweed; test: as above; details: pre-emergence, 504 h, 16 lb/acre, about 3 weeks
Text: as §1, §2, §3, §4

[7] = tested on: Alfalfa; test: as above; details: Medicago sativa, pre-emergence, 504 h, 16 lb/acre, about 3 weeks
Text: as §1, §2, §3, §4

[8] = tested on: Snapbeans; test: as above; details: pre-emergence, 504 h, 16 lb/acre, about 3 weeks
Text: as §1, §2, §3, §4

[9] = tested on: Velvetleaf; test: as above; details: Abutilon theophrasti, pre-emergence, 504 h, 16 lb/acre, about 3 weeks
Text: as §1, §2, §3, §4

[10] = tested on: Yellow Rocket; test: as above; details: pre-emergence, 504 h, 16 lb/acre, about 3 weeks
Text: as §1, §2, §3, §4

[11] = tested on: Nutgrass; test: as above; details: pre-emergence, 504 h, 16 lb/acre, about 3 weeks
Text: as §1, §2, §3, §4

[12] = tested on: Foxtail; test: as above; details: Setaria, pre-emergence, 504 h, 16 lb/acre, about 3 weeks
Text: as §1, §2, §3, §4

[13] = tested on: Johnsongrass; test: as above; details: Sorghum halepense, pre-emergence, 504 h, 16 lb/acre, about 3 weeks
Text: as §1, §2, §3, §4

[14] = tested on: Wild Oats; test: as above; details: Avena fatua, pre-emergence, 504 h, 16 lb/acre, about 3 weeks
Text: as §1, §2, §3, §4

[15] = tested on: Cucumber; test: as above; details: Cucumis sativus, pre-emergence, 504 h, 16 lb/acre, about 3 weeks
Text: as §1, §2, §3, §4

[16] = tested on: Corn; test: as above; details: Zea mays, pre-emergence, 504 h, 16 lb/acre, about 3 weeks
Text: as §1, §2, §3, §4

[17] = tested on: Pigweed; test: as above; details: Amaranthus retroflexus, pre-emergence, 504 h, 16 lb/acre, about 3 weeks
Text: as §1, §2, §3, §4

[18] = tested on: Curled Dock; test: Postemergence herbicidal activity, % control of plant growth; details: post-emergence, 264 h, 8 lb/acre, about 11 days
Text: (§5) By the term "postemergence" is meant that the compound is applied to the plant sought to be controlled after it has emerged from the soil surface. This term is also used to describe the application of herbicidally active compounds to soil surface in and around growing plants sought to be controlled for purposes of effecting root absorption by the undesirable plant species.
(§6) In the postemergence test the soil and developing plants were sprayed approximately 2 weeks after the seeds were sown. The compound was applied at the rate of 8 pounds per acre from about a 2 percent by weight solution of the test compound in acetone and/or alcohol. The postemergence herbicidal activity was measured in the same way as the preemergence activity; i.e. visual observation approximately 11 days after spraying, and expressed as the percent control of plant growth.
(§7) **Postemergence test: compound applied at rate of 8 lb/acre

[19] = tested on: Cheatgrass; test: as above; details: Bromus tectorum, post-emergence, 264 h, 8 lb/acre, about 11 days
Text: as §5, §6, §7

[20] = tested on: Lambsquarters; test: as above; details: Chenopodium album, post-emergence, 264 h, 8 lb/acre, about 11 days
Text: as §5, §6, §7

[21] = tested on: Crabgrass; test: as above; details: Digitaria sanguinalis, post-emergence, 264 h, 8 lb/acre, about 11 days
Text: as §5, §6, §7

[22] = tested on: Barnyard Grass; test: as above; details: Echinochloa crus-galli, post-emergence, 264 h, 8 lb/acre, about 11 days
Text: as §5, §6, §7

[23] = tested on: Chickweed; test: as above; details: post-emergence, 264 h, 8 lb/acre, about 11 days
Text: as §5, §6, §7

[24] = tested on: Alfalfa; test: as above; details: Medicago sativa, post-emergence, 264 h, 8 lb/acre, about 11 days
Text: as §5, §6, §7

[25] = tested on: Snapbeans; test: as above; details: post-emergence, 264 h, 8 lb/acre, about 11 days
Text: as §5, §6, §7

[26] = tested on: Velvetleaf; test: as above; details: Abutilon theophrasti, post-emergence, 264 h, 8 lb/acre, about 11 days
Text: as §5, §6, §7

[27] = tested on: Yellow Rocket; test: as above; details: post-emergence, 264 h, 8 lb/acre, about 11 days
Text: as §5, §6, §7

[28] = tested on: Nutgrass; test: as above; details: post-emergence, 264 h, 8 lb/acre, about 11 days
Text: as §5, §6, §7

[29] = tested on: Foxtail; test: as above; details: Setaria, post-emergence, 264 h, 8 lb/acre, about 11 days
Text: as §5, §6, §7

[30] = tested on: Johnsongrass; test: as above; details: Sorghum halepense, post-emergence, 264 h, 8 lb/acre, about 11 days
Text: as §5, §6, §7

[31] = tested on: Wild Oats; test: as above; details: Avena fatua, post-emergence, 264 h, 8 lb/acre, about 11 days
Text: as §5, §6, §7

[32] = tested on: Cucumber; test: as above; details: Cucumis sativus, post-emergence, 264 h, 8 lb/acre, about 11 days
Text: as §5, §6, §7

[33] = tested on: Corn; test: as above; details: Zea mays, post-emergence, 264 h, 8 lb/acre, about 11 days
Text: as §5, §6, §7

[34] = tested on: Pigweed; test: as above; details: Amaranthus retroflexus, post-emergence, 264 h, 8 lb/acre, about 11 days
Text: as §5, §6, §7

| SMILES | pest or weed control at 17933.6 g/ha [1] [%] | pest or weed control at 17933.6 g/ha [2] [%] | pest or weed control at 17933.6 g/ha [3] [%] | pest or weed control at 17933.6 g/ha [4] [%] | pest or weed control at 17933.6 g/ha [5] [%] | pest or weed control at 17933.6 g/ha [6] [%] | pest or weed control at 17933.6 g/ha [7] [%] | pest or weed control at 17933.6 g/ha [8] [%] | pest or weed control at 17933.6 g/ha [9] [%] | pest or weed control at 17933.6 g/ha [10] [%] | pest or weed control at 17933.6 g/ha [11] [%] | pest or weed control at 17933.6 g/ha [12] [%] | pest or weed control at 17933.6 g/ha [13] [%] | pest or weed control at 17933.6 g/ha [14] [%] | pest or weed control at 17933.6 g/ha [15] [%] | plant injury at 17933.6 g/ha [16] [%] | pest or weed control at 17933.6 g/ha [17] [%] | pest or weed control at 8966.8 g/ha [18] [%] | pest or weed control at 8966.8 g/ha [19] [%] | pest or weed control at 8966.8 g/ha [20] [%] | further results |
| --- | --- | --- | --- | --- | --- | --- | --- | --- | --- | --- | --- | --- | --- | --- | --- | --- | --- | --- | --- | --- | --- |
| CCCn1c(=O)[nH]c2cccnc2c1=O [3-propyl-pyrido[3,2-d]pyrimidine-2,4(1H,3H)-dione] | 100 | 100 | 100 | 100 | 100 | 100 | 100 | 100 | 100 | 100 | 20 | 100 | 100 | 100 | 100 | 100 | 100 | 100 | 100 | 100 | pest or weed control at 8966.8 g/ha [21]: 100%; pest or weed control at 8966.8 g/ha [22]: 100%; pest or weed control at 8966.8 g/ha [23]: 100%; pest or weed control at 8966.8 g/ha [24]: 100%; pest or weed control at 8966.8 g/ha [25]: 100%; pest or weed control at 8966.8 g/ha [26]: 100%; pest or weed control at 8966.8 g/ha [27]: 100%; pest or weed control at 8966.8 g/ha [28]: 70%; pest or weed control at 8966.8 g/ha [29]: 100%; pest or weed control at 8966.8 g/ha [30]: 100%; pest or weed control at 8966.8 g/ha [31]: 90%; pest or weed control at 8966.8 g/ha [32]: 100%; plant injury at 8966.8 g/ha [33]: 60%; pest or weed control at 8966.8 g/ha [34]: 100% |
| CCCCn1c(=O)[nH]c2nccnc2c1=O [Lumazine, 3-butyl] | 0 | 0 | 0 | 0 | 0 | 90 | 0 | 20 | 0 | 0 | 0 | 0 | 0 | 0 | 0 | 0 | 0 | 0 | 0 | 70 | pest or weed control at 8966.8 g/ha [21]: 0%; pest or weed control at 8966.8 g/ha [22]: 0%; pest or weed control at 8966.8 g/ha [23]: 0%; pest or weed control at 8966.8 g/ha [24]: 0%; pest or weed control at 8966.8 g/ha [25]: 0%; pest or weed control at 8966.8 g/ha [26]: 0%; pest or weed control at 8966.8 g/ha [27]: 70%; pest or weed control at 8966.8 g/ha [28]: 0%; pest or weed control at 8966.8 g/ha [29]: 0%; pest or weed control at 8966.8 g/ha [30]: 0%; pest or weed control at 8966.8 g/ha [31]: 0%; pest or weed control at 8966.8 g/ha [32]: 0%; plant injury at 8966.8 g/ha [33]: 0%; pest or weed control at 8966.8 g/ha [34]: 0% |
